In PubChem BioAssay AID179 (DTP/NCI, 2004):
Calls of active or inactive are those of the source.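 How the source made its calls: active means compounds giving half or more protection of infected cells from virus-caused growth loss, again on retest; inactive means the rest.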

Tested on: CEM cells HIV-1 protection, formazan growth assay
Assay: NCI AIDS Antiviral Assay
Conditions: for IC50: measured here: growth of uninfected CEM cells
How it was run: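 Human CEM cells, uninfected and HIV-1-infected, exposed to five drug concentrations; growth measured by soluble formazan assay and scored as percent protection from infection, with protecting compounds retested.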

`Cc1cc(=O)c2c(o1)-c1ccccc1C(c1ccccc1)c1ccccc1-2` (configuration not stated) was tested, and the EC50 was 1.51 µM and the IC50 was 25.1 µM.
With `O=C(c1ccccc1)N1OCCCc2ccccc21` the EC50 was over 200 µM and the IC50 was 195 µM.
Work on `COc1cc(C(CN)N(C)C)cc(OC)c1OC` (configuration not stated) yielded an EC50 of over 200 µM and an IC50 of over 200 µM.
`CCCCCCCCCCCCc1ccsc1-c1ccc(-c2ccc(-c3sc(-c4cc(CCCCCCCCCCCC)c(-c5ccc(-c6ccc(-c7sccc7CCCCCCCCCCCC)s6)s5)s4)cc3CCCCCCCCCCCC)s2)s1` gave an EC50 of over 50.1 µM and an IC50 of over 50.1 µM.
`c1ccc2c3[nH]c(c2c1)=Nc1ccc(cc1)-c1nc2ccc(cc2o1)N=c1[nH]c(c2ccccc12)=Nc1ccc2nc(oc2c1)-c1ccc(cc1)N=3` was tested, and the EC50 was over 200 µM and the IC50 was 37.2 µM.
Work on `Clc1cc(OCC23CC4CC(CC(C4)C2)C3)nc(OCC23CC4CC(CC(C4)C2)C3)n1` yielded an EC50 of over 100 µM and an IC50 of over 100 µM.
`c1c[se]c(-c2nc3ccccc3[nH]2)c1` showed an EC50 of over 69.2 µM and an IC50 of over 69.2 µM.
`C[Si](C)(C)OC1(C#N)C2C3CC4C2C(=O)C2C4C3C21` (configuration not stated) was tested, and the outcome was “inactive”.
`Cc1cc(C2(c3cc(C)c(O)c4ncccc34)OC(=O)c3ccccc32)c2cccnc2c1O` gave an EC50 of over 2 µM and an IC50 of 0.102 µM.
`O=[N+]([O-])c1ccccc1Oc1ccccc1` gave an EC50 of 55 µM and an IC50 of 87.1 µM.
Molecule `Cn1c(=O)c2ncnnc2n(C)c1=O` has an EC50 of over 200 µM and an IC50 of 93.3 µM.
`CC1(C)CC(=O)C2=C(C1)NC(=S)C(C#N)C2c1ccccc1` (configuration not stated) gave an EC50 of over 85.1 µM and an IC50 of 32.4 µM.
`NNC(=S)N/N=C(\c1nc2ccc(Cl)cc2[nH]c1=O)C(O)c1cccc([N+](=O)[O-])c1` (configuration not stated) was tested, and the EC50 was over 562 µM and the IC50 was 120 µM.
Molecule `CC(C)(C)C1CCC2(CC1)CCN(N1CCCCCC1)CC2` has an EC50 of over 100 µM and an IC50 of 91.2 µM.
`COc1ccc(NC(=O)CSc2nc(C)nc3c2sc(=S)n3-c2ccccc2)cc1` showed an EC50 of over 200 µM and an IC50 of over 200 µM.
Molecule `CN(C)c1cccc(NC2=NCCO2)c1` has an EC50 of over 200 µM and an IC50 of 33.9 µM.
In the case of `CN1NC(=O)SC(=O)c2ccccc2C1=O`, the outcome is reported as “inactive”.
Molecule `COc1ccc(/C=C(/C(=O)c2ccc(Cl)cc2)N2C=CC=CC2=C(C#N)C#N)cc1OC` has an EC50 of over 20 µM and an IC50 of 0.117 µM.
`CCOC(=O)/C(=C\c1ccoc1)P(=O)(OCC)OCC` gave an EC50 of over 832 µM and an IC50 of 30.9 µM.
In the case of `CCC(O)(Cc1ccc(OC)cc1)c1ccc(OC)cc1` (configuration not stated), the EC50 is reported as over 200 µM and the IC50 is reported as 123 µM.
`COC(=O)[C@@H]1COC(=O)N1` was tested, and the EC50 was over 200 µM and the IC50 was over 200 µM.
Work on `CC1(C)CC(=O)C2=C(C1)OC1=C(CC(C)(C)CC1=O)C2c1ccccc1[N+](=O)[O-]` (configuration not stated) yielded an EC50 of over 200 µM and an IC50 of over 200 µM.
`CC(C)(Oc1ccc2c(=O)cc(-c3ccccc3)oc2c1)C(=O)Nc1c(Cl)cccc1Cl` gave an EC50 of over 11.2 µM and an IC50 of over 11.2 µM.
With `COc1cc(OC)c(SSCCCCS(=O)O)c(OC)c1` the outcome was “inactive”.
With `Oc1ccc(C23CC4CC(CC(C4)C2)C3)cc1` the outcome was “inactive”.
`N/N=C(\C(=O)Nc1ccc([N+](=O)[O-])cc1)C(C1=Nc2cc([N+](=O)[O-])ccc2NC1)[N+](=O)[O-]` (configuration not stated) showed an EC50 of over 30.9 µM and an IC50 of over 30.9 µM.
`Nc1ccc(/C=C\C2(CCl)OCCO2)cc1` was tested, and the EC50 was over 100 µM and the IC50 was over 100 µM.
Molecule `O=C(c1ccccc1)c1nc2ccc(Cl)cc2c2c1Cc1ccccc1-2` has an EC50 of over 2.95 µM and an IC50 of over 2.95 µM.
With `CC(=O)C1(c2ccccc2)CCCN(C)CC1` (configuration not stated) the outcome was “inactive”.
For `Cc1c(Cl)cccc1NC(=O)C(=O)C1C(=O)CC(C)(C)CC1=O`, the EC50 was over 741 µM and the IC50 was over 741 µM.
`Sc1ccc2ccccc2c1CNC1CCCCC1` showed an EC50 of over 200 µM and an IC50 of 28.2 µM.
For `O=C(O)c1cc(CCc2cc(O)ccc2O)ccc1O`, the EC50 was over 182 µM and the IC50 was 28.8 µM.
For `CCOC(=O)CON=c1c2ccccc2ccc2ccccc12`, the EC50 was over 200 µM and the IC50 was over 200 µM.
With `CC1=NN=C(N)NC1=CC(Sc1ccc(Cl)cc1)c1c(O)ccc2ccccc12` (configuration not stated) the EC50 was over 200 µM and the IC50 was 11.2 µM.
Molecule `CCOC(=O)C[P+](c1cccc(F)c1)(c1cccc(F)c1)c1cccc(F)c1` has an EC50 of over 200 µM and an IC50 of 166 µM.
Molecule `CC1(C)CC(C)(Br)C(Br)C(=O)C1C(O)(C(F)(F)F)C(F)(F)F` (configuration not stated) has an EC50 of over 200 µM and an IC50 of 33.1 µM.
For `COC(=O)Cc1cccc2c(=O)c(S(=O)(=O)NC(=O)Nc3ccc(Cl)cc3)c(-c3ccccc3)oc12`, the EC50 was over 200 µM and the IC50 was 41.7 µM.
`c1cnc(NCCSSCCNc2ncccn2)nc1` gave an EC50 of over 200 µM and an IC50 of 38 µM.
In the case of `O=S1(=O)c2ccccc2S(=O)(=O)c2ccccc21`, the EC50 is reported as 87.1 µM and the IC50 is reported as over 200 µM.
`O=C1c2ccccc2C(=O)c2c(NCCNC(=O)C3CCCN3)ccc(NCCNC(=O)C3CCCN3)c21` (configuration not stated) showed an EC50 of over 151 µM and an IC50 of 22.4 µM.
For `O=C(c1nc2ccc(Cl)cc2[nH]c1=O)C(O)c1cccc([N+](=O)[O-])c1` (configuration not stated), the EC50 was over 186 µM and the IC50 was 12 µM.
`CCCC(=O)OC1C(C(O)CO)OC2OC(C)(C)OC21` (configuration not stated) was tested, and the EC50 was over 871 µM and the IC50 was over 871 µM.
In the case of `CCOP(=O)(OCC)/C(C#N)=C/c1ccc2c(c1)OCO2`, the EC50 is reported as over 427 µM and the IC50 is reported as over 427 µM.
`CCc1ccccc1-n1c2nc(=O)n(C)c(=O)c-2nc2ccccc21` was tested, and the outcome was “inactive”.
